Laboratory results reported in patent US20210137854A1, “TAAR Receptor Agonists for the Treatment of Alopecia” (APPLIED BIOLOGY, INC., priority 2018, published 2021).

Assays:
Type in all cases: in vivo, human
[1] = Cardiac or hemodynamic changes during topical α1-AR agonist studies; conditions: subjects sampled during both studies
From the text: It is recognized that […] of the α1 adrenergic receptor (α1-AR), a G-protein coupled receptor, expressed on the arrector pili muscle.

[2] = tested on: scalp hair follicles; test: Hair shedding during brushing after topical solution versus placebo
From the text: Participants included in the study were female subjects between ages of 18 and 60 who frequently use traumatic hair care practices, such as tight braids, head scarves, ponytails, extensions, hair rollers, hair weaves and heated styling appliances such as blow dryers, flat irons, heat setters and curling irons. Excluded subjects were those who experienced uncontrolled hypertension, those who were pregnant or breastfeeding, those who were diagnosed with pattern hair loss, or those who experienced other hair loss in conjunction with female pattern hair loss. Overall, fifteen female subjects, aged 24 to 40 years, participated in the study.
On day 1, subjects were instructed to wash their hair. On day 2, subjects were instructed to apply 1 mL of placebo solution containing vehicle and brush targeted area after 30 minutes. Brushing was conducted to frontal hair with regular brush in size of 8×10 cm^2. On day 3, subjects were instructed again to wash their hair. On day 4, subjects were instructed to apply 1 mL of 10% m-octopamine hydrochloride solution on targeted area and brush after 30 minutes.
The study was conducted over 4 days. On day 1, subjects were instructed to wash their hair. […]
Hair Shedding: To measure hair loss during cosmetic procedures, a 4-day protocol was designed. […] After each clinical procedure, the investigator counted the hairs collected on each brush. […]

[3] = tested on: scalp hair follicles; test: Epilation force threshold for plucking scalp hair (trichotillometer)
Procedure: To evaluate the effect of a topically applied TAAR agonist combination on the force required to pluck hairs from the scalp, a hand-held spring dynamometer, or “trichotillometer” was used. The trichotillometer records the maximum force threshold, in grams, required to pluck a single hair from the scalp; the performance and statistical variance of the instrument have been reported previously. […] The frontal area of scalp was divided into two 8×10 cm^2 areas. On the right side 0.5 mL of a placebo vehicle was applied. On the left side, 0.5 mL a 12% tyramine solution was applied. After 45 minutes, ten hairs were plucked from each of the target areas with the trichotillometer.

CNC[C@H](O)c1cccc(O)c1 [phenylephrine]
cardiac or hemodynamic changes [1]: no cardiac or hemodynamic changes were observed
subjects with reduced shedding compared to days using placebo solution ([2]; Examples 7 and 9, blinded study, female subjects ages 18-40): 80%
reduction in hairs lost (shedding) during brushing ([2]; earlier studies of the inventors, phenylephrine 15 female subjects, AB-102 cohort of 40 women): 40%
increase in epilatory force threshold for plucking hair follicles ([3]; following topical application, Examples 5 and 6, FIGS. 4-5): 172%
increase in average threshold of force required to pluck hair ([3]; pilot study of 15 female subjects): 172%
